From the Kinase Knowledgebase extract (Sharma et al. 2016) come the findings set out here.

Molecules are shown by their SMILES.

Experiment [1] deals with MAPK14 (UniProt Q16539). Put plainly: Inhibition of MAPK14 Kinase Activity (Binding Assay).
Experiment [2] concerns the target MAPK14 (UniProt Q16539). Briefly: Inhibition of MAPK14 Kinase Activity (Spectrophometric Assay). As to conditions: concentration not given here.
The target in experiment [3] is CDK2 (UniProt P24941). Put plainly: Enzyme Assay.
Experiment [4] has as its target EGFR (UniProt P00533).
The target of experiment [5] is EGFR (human) (UniProt P00533). As to conditions: a431.
Chain of EGFR (human) (P00533 whole entry, looked up): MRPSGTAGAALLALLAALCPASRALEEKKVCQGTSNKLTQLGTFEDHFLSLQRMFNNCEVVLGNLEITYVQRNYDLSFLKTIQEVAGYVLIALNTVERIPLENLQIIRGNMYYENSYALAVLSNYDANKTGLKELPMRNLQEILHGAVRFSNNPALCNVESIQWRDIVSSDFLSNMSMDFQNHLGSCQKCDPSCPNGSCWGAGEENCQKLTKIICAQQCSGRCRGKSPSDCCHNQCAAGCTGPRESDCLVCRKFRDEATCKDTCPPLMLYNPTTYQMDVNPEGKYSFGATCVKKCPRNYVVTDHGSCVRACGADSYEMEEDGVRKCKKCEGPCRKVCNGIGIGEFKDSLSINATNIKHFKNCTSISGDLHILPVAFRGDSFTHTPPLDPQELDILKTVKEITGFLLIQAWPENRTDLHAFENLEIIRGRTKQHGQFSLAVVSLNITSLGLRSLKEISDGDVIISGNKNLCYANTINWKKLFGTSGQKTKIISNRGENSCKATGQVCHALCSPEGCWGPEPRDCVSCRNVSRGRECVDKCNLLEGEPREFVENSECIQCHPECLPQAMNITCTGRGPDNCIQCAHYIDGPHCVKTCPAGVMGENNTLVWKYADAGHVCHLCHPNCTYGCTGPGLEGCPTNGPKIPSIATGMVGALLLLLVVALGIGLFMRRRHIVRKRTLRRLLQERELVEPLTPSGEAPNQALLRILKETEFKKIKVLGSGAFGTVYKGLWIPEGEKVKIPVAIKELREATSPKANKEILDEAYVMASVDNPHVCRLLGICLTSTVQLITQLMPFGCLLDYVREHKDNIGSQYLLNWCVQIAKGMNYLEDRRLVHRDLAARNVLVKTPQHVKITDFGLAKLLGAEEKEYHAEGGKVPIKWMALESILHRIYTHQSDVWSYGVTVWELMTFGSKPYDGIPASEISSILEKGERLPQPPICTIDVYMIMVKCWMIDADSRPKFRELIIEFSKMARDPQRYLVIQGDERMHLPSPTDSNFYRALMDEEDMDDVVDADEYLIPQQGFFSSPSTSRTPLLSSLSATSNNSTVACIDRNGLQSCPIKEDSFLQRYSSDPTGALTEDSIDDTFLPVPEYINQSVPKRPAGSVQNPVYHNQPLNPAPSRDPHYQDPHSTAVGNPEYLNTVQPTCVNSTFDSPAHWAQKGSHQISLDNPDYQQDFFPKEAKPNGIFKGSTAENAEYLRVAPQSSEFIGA
The target of experiment [6] is MAPK14 (UniProt Q16539). Briefly: CSBP binding - Inhibition of Prostaglandin H Synthase Type-1 Enzyme Assay.
Experiment [7] addresses MAPK14 (UniProt Q16539). Briefly: CSBP binding - Inhibition of RBL-1 5 Lipoxygenase Enzyme Assay.
Experiment [8] addresses EGFR (human) (UniProt P00533).
The target of experiment [9] is EGFR (human) (UniProt P00533). The source holds these as a separate data set.
The target of experiment [10] is EGFR (human) (UniProt P00533). As to conditions: hn5.
In experiment [11] the target is EGFR (human), P00533 [WT].
The target in experiment [12] is EGFR (UniProt P00533). As to conditions: concentration not given here.
Chain of EGFR (P00533 whole entry, looked up): as above
Experiment [13] deals with EGFR (human) (UniProt P00533). As to conditions: hn5. This is another data set of the same source.
Experiment [14] deals with EGFR (UniProt P00533). This is another data set of the same source.
Experiment [15] addresses MAPK14 (UniProt Q16539). Briefly: Inhibition of MAPK14 Kinase Activity.
Experiment [16] deals with EGFR (UniProt P00533). This is another data set of the same source.
A further experiment concerns the target CDK2 (human) (UniProt P24941).
Experiment [17] has as its target PIK3CA (human), P42336 [Assessment of PIK3CA (Mutant) Kinase Activity in MCF-7.1 Cell Line]. Briefly: Assessment of PIK3CA (Mutant) Kinase Activity in MCF-7.1 Cell Line. As to conditions: mcf-7.
Experiment [18] concerns the target CDK2 (UniProt P24941). Briefly: Enzyme Assay. This is another data set of the same source.
Experiment [19] addresses MAPK14 (human) (UniProt Q16539). Briefly: Inhibition of MAPK14 Kinase Activity.
Experiment [20] has the same target. Briefly: Inhibition of MAPK14 Kinase Activity. This is another data set of the same source.
The target of experiment [21] is EGFR (UniProt P00533). The source holds these as a separate data set.
Experiment [22] deals with EGFR (human) (UniProt P00533). As to conditions: hn5. The source holds these as a separate data set.
Experiment [23] has as its target EGFR (human) (UniProt P00533). The conditions noted are these: hn5. The source holds these as a separate data set.
Experiment [24] has as its target EGFR (human) (UniProt P00533). The source holds these as a separate data set.
In experiment [25] the target is MAPK14 (UniProt Q16539). Briefly: Inhibition of TNF-alpha Production.
Experiment [26] addresses EGFR (human) (UniProt P00533). The conditions noted are these: a431. This is another data set of the same source.
The target of the next experiment is PIK3CA (human) (UniProt P42336). Put plainly: Inhibition of PIK3CA Kinase Activity (FP Assay).
Chain of PIK3CA (human) (P42336 whole entry, looked up): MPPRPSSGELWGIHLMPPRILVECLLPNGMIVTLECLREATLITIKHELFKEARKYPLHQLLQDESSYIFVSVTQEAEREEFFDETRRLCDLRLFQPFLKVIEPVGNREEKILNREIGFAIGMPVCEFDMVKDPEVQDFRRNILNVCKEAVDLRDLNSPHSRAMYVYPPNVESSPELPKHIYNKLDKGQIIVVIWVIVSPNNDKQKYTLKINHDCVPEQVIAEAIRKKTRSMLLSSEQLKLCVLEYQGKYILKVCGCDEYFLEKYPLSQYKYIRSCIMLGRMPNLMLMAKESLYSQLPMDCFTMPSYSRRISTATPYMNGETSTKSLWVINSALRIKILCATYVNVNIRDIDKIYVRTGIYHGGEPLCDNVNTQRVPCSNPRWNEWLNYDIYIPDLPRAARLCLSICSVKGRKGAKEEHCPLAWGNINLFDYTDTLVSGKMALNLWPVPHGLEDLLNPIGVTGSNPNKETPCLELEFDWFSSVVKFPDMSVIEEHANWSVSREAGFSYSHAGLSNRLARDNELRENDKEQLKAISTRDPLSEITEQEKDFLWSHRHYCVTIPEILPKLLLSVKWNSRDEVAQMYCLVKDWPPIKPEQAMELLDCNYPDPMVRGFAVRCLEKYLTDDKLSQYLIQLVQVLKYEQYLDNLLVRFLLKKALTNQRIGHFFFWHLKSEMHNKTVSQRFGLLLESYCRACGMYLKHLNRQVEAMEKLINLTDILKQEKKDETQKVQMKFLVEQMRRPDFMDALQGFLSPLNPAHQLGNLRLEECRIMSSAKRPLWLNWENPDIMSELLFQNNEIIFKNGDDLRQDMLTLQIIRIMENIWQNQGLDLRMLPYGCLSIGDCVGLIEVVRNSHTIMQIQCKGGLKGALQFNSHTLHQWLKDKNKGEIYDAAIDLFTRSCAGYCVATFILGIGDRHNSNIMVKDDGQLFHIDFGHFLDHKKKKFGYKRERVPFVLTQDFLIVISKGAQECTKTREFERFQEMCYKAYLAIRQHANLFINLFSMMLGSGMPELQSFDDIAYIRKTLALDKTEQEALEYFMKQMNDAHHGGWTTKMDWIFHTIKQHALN
Experiment [27] concerns the target EGFR (UniProt P00533). This is another data set of the same source.

In general, IC50 refers to the midpoint of a concentration-inhibition curve. Read a low IC50 as greater potency in that assay. One may read the inhibition as the share of the control response that was lost under treatment. The low end stands for a response near the control, the high end for a response far below the control. The GI50 is the concentration at which growth is held to half of that of the control. Low readings indicate greater sensitivity of the cells, high ones lower sensitivity of the cells.

Chain of MAPK14 (Q16539 whole entry, looked up): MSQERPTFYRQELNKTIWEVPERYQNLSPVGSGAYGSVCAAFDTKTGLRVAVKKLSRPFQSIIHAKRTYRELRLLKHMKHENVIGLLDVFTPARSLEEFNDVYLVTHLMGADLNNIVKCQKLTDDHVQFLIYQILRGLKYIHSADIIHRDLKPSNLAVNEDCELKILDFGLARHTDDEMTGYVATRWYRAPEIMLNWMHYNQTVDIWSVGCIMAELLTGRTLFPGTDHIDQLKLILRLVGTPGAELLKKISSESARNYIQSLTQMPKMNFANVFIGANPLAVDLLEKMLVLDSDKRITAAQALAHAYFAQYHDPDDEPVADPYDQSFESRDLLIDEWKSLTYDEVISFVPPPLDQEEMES
Chain of MAPK14 (human) (Q16539 whole entry, looked up): as above
Chain of PIK3CA (human), P42336 [Assessment of PIK3CA (Mutant) Kinase Activity in MCF-7.1 Cell Line] (P42336 whole entry, looked up, change not shown): as the sequence (P42336 whole entry, looked up) above

Take `CC12CC(C(=O)O)CC(C)(C1)C(=O)N(Cc1cccc(-n3nc(C(C)(C)C)cc3NC(=O)Nc3ccc(Cl)cc3)c1)C2=O` (stereo not given): at MAPK14 [1], the IC50 is 10000 nM. The molecule also registered an inhibition against MAPK14 [2] of 70%.

For the molecule `CNC(=O)N1CCN(Cc2ccnc(Nc3ncc(C#N)s3)c2)CC1`, the IC50 was 3940 nM against CDK2 [3] and above 19200 nM on EGFR [4].

The molecule `Nc1ccc(NC(=O)Nc2cccc3c2C(=O)c2c-3n[nH]c2-c2ccc(O)cc2)cc1` showed a GI50 with EGFR (human) [5] above 10000 nM.

On to `Clc1ccc(-c2ncn(CCCN3CCOCC3)c2-c2ccncc2)cc1Cl`, for which the IC50 on MAPK14 [6] and at MAPK14 [7] was above 100000 nM in each case.

`N#Cc1cnc2cc3c(cc2c1Nc1ccc(F)c(Cl)c1)N(C(=O)/C=C/CBr)CCO3`: on EGFR (human) [8], the IC50 is 1000 nM.

In the case of `Cn1ccnc1S(=O)(=O)CCNCc1ccc(-c2ccc3ncnc(Nc4ccc(OCc5cccc(F)c5)c(Cl)c4)c3c2)o1`, the IC50 at EGFR (human) [9] is 17 nM; against EGFR (human) [10], 500 nM.

The molecule `Brc1cccc(Nc2ccnc3ccccc23)c1` displayed an IC50 in [11] of 5500 nM.

In turn, `O=C1NCc2c1c1c3ccc(O)cc3[nH]c1c1[nH]c3ccccc3c21` returned an inhibition on EGFR [12] of 50 to 80%.

At EGFR (human) [13], `C#Cc1cccc(Nc2ncnc3ccc(OCCCCNCCS(C)(=O)=O)cc23)c1` returned an IC50 of 45 nM.

Regarding `N#Cc1cnc2cc3c(cc2c1Nc1ccc(F)c(Cl)c1)N(C(=O)/C=C/CCl)CCO3`, the IC50 against EGFR (human) [8] came out at 1000 nM.

`COc1ccc(-c2[nH]nc3c2C(=O)c2c(NC(=O)Nc4ccc(O)cc4)cccc2-3)cc1` had a GI50 with EGFR (human) [5] above 10000 nM.

In the case of `CN1CCC(Oc2cccc3ncnc(Nc4ccc(OCc5cscn5)c(Cl)c4)c23)CC1`, at EGFR [14], the IC50 was 280 nM.

With `CCS(=O)(=O)c1ccc(OC)c(Nc2ncc(-c3cccc(-c4ccccn4)c3)o2)c1`, the results for the IC50 at MAPK14 [15], against EGFR [16] and on CDK2 [3] were above 10000 nM, above 10000 nM and 1700 nM, respectively.

In the case of `CS(=O)(=O)CCNCCCCOc1ccc2ncnc(Nc3ccc(F)c(Cl)c3)c2c1`, the IC50 against EGFR (human) [13] worked out at 71 nM.

`N=C(N)NS(=O)(=O)c1ccc(NC2=Cc3ccc(C(=O)c4c(Cl)cccc4Cl)cc3C2)cc1`: the IC50 against CDK2 (human) came out at 250 nM.

In experiment [17], `Cc1nc(N)ncc1-c1nc(N2CCOCC2)c2sc(CN3CCN(S(C)(=O)=O)CC3)cc2n1` yielded an IC50 of 290 nM.

Consider `COc1ccc2cnc(Nc3ccc(N4CCCCC4)cc3)nc2c1C(C)C`, for which the IC50 against CDK2 [18] worked out at 264 nM; against CDK2 [3] it was 4100 nM.

For the molecule `CONC(=O)c1ccc(C)c(Nc2nc(NCC3CCCC(CN)C3)nc(NC3CCCCC3C)n2)c1` (stereo not given), the IC50 against MAPK14 (human) [19] and against MAPK14 (human) [20] was 2 nM throughout.

On EGFR [21], `COc1cc2c(NC3=CC(=O)C(OC(CF)CF)=CC3=O)ncnc2cc1OCC1CCN(C)CC1` registered an IC50 of 1800 to 117000 nM.

Take `CCS(=O)(=O)c1ccc(OC)c(Nc2ncc(-c3cccc(-c4ccccc4F)c3)o2)c1`: the IC50 against MAPK14 [15] and at EGFR [16] was above 10000 nM in each case.

Regarding `COc1ccc2c(-c3ccc(N4CCC(N)C4)cc3)nc(N)nc2c1C(C)C` (stereo not given), the IC50 on CDK2 [18] came out at 296 nM; on CDK2 [3], 2550 nM.

Regarding `CS(=O)(=O)CCNCc1cc(-c2cc3ncnc(Nc4ccc(OCc5cccc(F)c5)c(Cl)c4)c3s2)cs1`, at EGFR (human) [22], the IC50 came to 100 nM.

For the molecule `CS(=O)(=O)CCNCc1nc(-c2ccc3ncnc(Nc4ccc(OCc5cccc(F)c5)c(Cl)c4)c3c2)cs1`, the IC50 is 80 nM against EGFR (human) [23] and below 100 nM on EGFR (human) [24].

As to `CN1CC2CCC1CC2Nc1cc(-c2ccccc2Cl)c2c(c1)N(c1c(Cl)cccc1Cl)C(=O)NC2` (stereo not given), the IC50 at MAPK14 [15] came to 0.4 nM; against MAPK14 [25], 20 nM.

For the molecule `N#Cc1cnc2cnc(NCc3cccnc3)cc2c1NC1CCCCCC1`, the IC50 at MAPK14 (human) [20] and at EGFR (human) [26] was above 40000 nM throughout.

`COC[C@H]1OC(=O)/C(=C/N(CCN(C)C)C(C)(C)C)C2=C(O)C(=O)C3=C([C@H](OC(C)=O)C[C@@]4(C)C3CC[C@@H]4O)[C@]21C` (stereo not given in full) registered an IC50 against PIK3CA (human) of 9.6 nM.

As to `COc1ccc(C#CC(C)(C)O)cc1-c1n[nH]c2nc(Nc3ccc(F)cc3F)ncc12`, the IC50 against EGFR [27] was 5200 nM.
